Measured values from patent publication US7119123B2, “Antimicrobially active 4-methyl-4-aryl-2-pentanols, their preparation and use” (Symrise GmbH & Co. KG, priority 2004, dated 2006).

Columns and labels:
Pseudomonas aeruginosa = test: agar dilution method, MIC; assay type: cell-based; conditions: read-out: MIC (minimum inhibitory concentration)
Protocol: (§1) Petri dishes 5.5 cm in diameter were charged with 8.7 ml freshly prepared Mueller-Hinton agar (Merck, Ref. 1.05437 or Wilkins-Chalgren agar boillon (sic), Oxoid, Ref. CM 643, supplemented with 10 g agar-agar/liter) kept liquid at 50° C., to which the various concentrations of the diluted samples were added in 3.3% (V/V)=0.3 ml. Mueller-Hinton agar that contained 3% Tween80 (Merck, Ref. 8.22 187) was used for the test germ Malassezia furfur.
(§2) 2.6 ml of the 3.3% samples were diluted with ethanol (96%; Merck, Ref. 1.00971). The further test concentrations of the particular dilution series, which were prepared in the form of geometric series, were prepared by progressive 2:1 dilution with ethanol (96%).
(§3) The concentrations indicated below relate to the pure substance and have been converted to ppm. Two agar plates were poured per test concentration and nutrient medium.
(§4) The MIC (minimum inhibitory concentration) was regarded as the lowest concentration of active compound at which macroscopically there is no growth. Minimal, barely visible growth or few small individual colonies were evaluated as inhibition.
(§5) The MIC values of various (R/S)-4-methyl-4-aryl-2-pentanols were determined in accordance with the general test conditions described under 2.1. (c.f. Table 3; MIC values for (R/S[lacuna]-4-methyl-4-phenyl-2-pentanol, for (R/S)-4-methyl-4-p-tolyl-2-pentanol, (R/S)-4-methyl-4-p-cumenyl-2-pentanol and (R/S)-4-methyl-4-(4-n-butylphenyl)-2-pentanol).

Escherichia coli = test: agar dilution method, MIC; assay type: cell-based; conditions: read-out: MIC (minimum inhibitory concentration)
Protocol: as §1, §2, §3, §4, §5

[1] = system: Brevibacterium epidermidis; test: agar dilution method, MIC; assay type: cell-based; conditions: ATCC35514; Brevibacterium epidermidis ATCC 35514; Mueller-Hinton agar, aerobic, 18 h at 36° C.; read-out: MIC (minimum inhibitory concentration)
Protocol: as §1, §2, §3
(§6) After solidification and drying (approximately 1 h at 37° C.), the test plates were inoculated in point form with, in each case, 1 μl of the test germ suspensions listed in the examples below. To check purity and identity, the bacteria (Brevibacterium epidermidis, Corynebakterium (sic) xerosis, Staphylococcus aureus; Staphylococcus epidermidis) which grow aerobically, were [lacuna] on Columbia blood agar (BioMérieux, Ref. 43049). The mould Aspergillus niger, the yeast Candida albicans and the skin fungus Trichophyton mentagrophytes were cultivated on Sabouraud agar (BioMérieux, Ref. 43555). Malassezia furfur was cultured on Sabourad-HLT agar with inhibitors (addition of Tween80: 1%; lecithin: 0.3%; histidine: 0.1%; Merck, Ref. 1.18368). Propionibacterium acnes was cultivated on Schaedler agar (BioMérieux, Ref. 43273). Further data on the test germs can be taken from Table 1.
(§7) The preparation of the test germ suspensions of the bacterial germs that grow aerobically was carried out by incubation of Mueller-Hinton broth (Merck, Ref. 1.10293) which had been inoculated with a few individual colonies of the relevant test germs, at 36° C. After a distinct turbidity had been obtained, sterile nutrient broth was added to the suspensions in such an amount that the turbidity thereof corresponded to McFarland Standard 0.5 (approx. 1.5×10^8 CFU/ml).
(§8) All test germ suspensions with the exception of Propionibacterium acnes were diluted again 1:10 with sterile broth and the germ count thereof was determined by the surface method using a Spiralometer (results: see Table 1).
as §4, §5

[2] = system: Staphylococcus epidermidis; test: agar dilution method, MIC; assay type: cell-based; conditions: ATCC12228; Staphylococcus epidermidis ATCC 12228; Mueller-Hinton agar, aerobic, 18 h at 36° C.; read-out: MIC (minimum inhibitory concentration)
Protocol: as §1, §2, §3, §6, §7, §8, §4, §5

Corynebacterium xerosis = test: agar dilution method, MIC; assay type: cell-based; conditions: ATCC7711; Corynebacterium xerosis ATCC 7711; Mueller-Hinton agar, aerobic, 18 h at 36° C.; read-out: MIC (minimum inhibitory concentration)
Protocol: as §1, §2, §3, §6, §7, §8, §4, §5

Malassezia furfur = test: agar dilution method, MIC; assay type: cell-based; conditions: DSM6171; Malassezia furfur DSM 6171; Mueller-Hinton agar + 3% Tween 80, aerobic, 72 h at 30° C.; read-out: MIC (minimum inhibitory concentration)
Protocol: as §1, §2, §3, §6
(§9) For preparation of the other test germ suspensions, the test strains were cultured on the abovementioned solid nutrient medium, harvested using sterile swabs and taken up or diluted in such an amount of Mueller-Hinton broth that the turbidity of the suspensions corresponded to McFarland standard 0.5.
as §8, §4, §5

Candida albicans = test: agar dilution method, MIC; assay type: cell-based; conditions: for MIC: ATCC10231, Candida albicans ATCC 10231, Mueller-Hinton agar, aerobic, 48 h at 30° C., read-out: MIC (minimum inhibitory concentration); for effectiveness against yeasts such as Candida albicans (in words): comparison among substances 2-5
Protocol: as §1, §2, §3, §6, §9, §8, §4, §5

[3] = system: Trichophyton mentagrophytes; test: agar dilution method, MIC; assay type: cell-based; conditions: CBS26379; Trichophyton mentagrophytes CBS 26379; Mueller-Hinton agar, aerobic, 72 h at 30° C.; read-out: MIC (minimum inhibitory concentration)
Protocol: as §1, §2, §3, §6, §9, §8, §4, §5

Aspergillus niger = test: agar dilution method, MIC; assay type: cell-based; conditions: for MIC: ATCC16404, Aspergillus niger ATCC 16404, Mueller-Hinton agar, aerobic, 48 h at 30° C., read-out: MIC (minimum inhibitory concentration); for effectiveness against moulds (in words): comparison among substances 2-5
Protocol: as §1, §2, §3, §6, §9, §8, §4, §5

Propionibacterium acnes = test: agar dilution method, MIC; assay type: cell-based; conditions: for MIC: Cutibacterium acnes, ATCC11829, Propionibacterium acnes ATCC 11829, Wilkins-Chalgren agar, anaerobic, 72 h at 36° C., read-out: MIC (minimum inhibitory concentration); for activity against Propionibacterium acnes (in words): text comment on Table 3
Protocol: as §1, §2, §3, §6, §9, §4, §5

glycolysis = conditions: known from J. Dental Res. 40,384 (1961); cariostatic; cited from earlier work

MIC (Pseudomonas aeruginosa) [µg/mL] | MIC (Escherichia coli) [µg/mL] | MIC [1] [µg/mL] | MIC [2] [µg/mL] | MIC (Corynebacterium xerosis) [µg/mL] | MIC (Malassezia furfur) [µg/mL] | MIC (Candida albicans) [µg/mL] | MIC [3] [µg/mL] | MIC (Aspergillus niger) [µg/mL] | MIC (Propionibacterium acnes) [µg/mL] | SMILES | effectiveness against yeasts such as Candida albicans (in words) (Candida albicans) | effectiveness against moulds (in words) (Aspergillus niger) | activity against Propionibacterium acnes (in words) (Propionibacterium acnes) | glycolysis-inhibiting action (in words) (glycolysis)
> 1100 | > 1100 | 138 | 138 | 69 | 550 | > 1100 | 69 | > 1100 | 138 | CC(O)CC(C)(C)c1ccc(C(C)C)cc1 (racemic) [Formula 4, (R,S)-4-methyl-4-p-cumenyl-2-pentanol] | – | – | – | –
> 1100 | > 1100 | 550 | 550 | 275 | 69 | 1100 | 138 | 550 | 550 | Cc1ccc(C(C)(C)CC(C)O)cc1 (racemic) [Formula 3, (R,S)-4-methyl-4-p-tolyl-2-pentanol] | most effective | most effective | an activity can also be observed | –
> 1100 | > 1100 | 550 | 1100 | 69 | 550 | > 1100 | 69 | > 1100 | > 1100 | CCCCc1ccc(C(C)(C)CC(C)O)cc1 (racemic) [Formula 5, (R,S)-4-methyl-4-(4-n-butylphenyl)-2-pentanol] | – | – | an activity can also be observed | –
> 1100 | > 1100 | 1100 | 1100 | 1100 | 69 | 1100 | 550 | 550 | 1100 | CC(O)CC(C)(C)c1ccccc1 (racemic) [Formula 2, (R,S)-4-methyl-4-phenyl-2-pentanol] | most effective | most effective | an activity can also be observed | a certain glycolysis-inhibiting action
